# PubChem BioAssay AID330 (DTP/NCI, 2004)
# Where “and” joins values, the source holds several entries; their conditions need not be identical. Equal values may be shown once. Inconclusive results and toxic doses are left out.
# Test system: P388 leukemia ip, CD2F1 mice, survival T/C
# Test: NCI In Vivo Anticancer Drug Screen. Data for tumor model P388 Leukemia (intraperitoneal) in CD2F1 (CDF1) mice
# Conditions: endpoint: median survival time, higher = longer survival
# How it was run: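 Mice carrying the transplanted tumor received test compound or vehicle. Survival was recorded in each group, and the value is the treated-group measurement divided by that of the vehicle-treated control group.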
# [1] = dose: 50.0 mg/kg/injection, schedule: Q01DX009 (ip), vehicle: Klucel (hydroxypropylcellulose) (HPC)
# [2] = dose: 100.0 mg/kg/injection, schedule: Q01DX009 (ip), vehicle: Klucel (hydroxypropylcellulose) (HPC)
# [3] = dose: 200.0 mg/kg/injection, schedule: Q01DX009 (ip), vehicle: Klucel (hydroxypropylcellulose) (HPC)
# [4] = dose: 50.0 mg/kg/injection, schedule: Q01DX005 (ip), vehicle: Klucel (hydroxypropylcellulose) (HPC)
# [5] = dose: 100.0 mg/kg/injection, schedule: Q01DX005 (ip), vehicle: Klucel (hydroxypropylcellulose) (HPC)
# [6] = dose: 200.0 mg/kg/injection, schedule: Q01DX005 (ip), vehicle: Klucel (hydroxypropylcellulose) (HPC)
# [7] = dose: 50.0 mg/kg/injection, schedule: Q01DX001 (ip), vehicle: saline with Tween-80
# [8] = dose: 50.0 mg/kg/injection, schedule: Q01DX009 (ip), vehicle: saline with Tween-80
# [9] = dose: 12.5 mg/kg/injection, schedule: Q01DX009 (ip), vehicle: saline with Tween-80
# [10] = dose: 25.0 mg/kg/injection, schedule: Q01DX009 (ip), vehicle: saline with Tween-80
# [11] = dose: 100.0 mg/kg/injection, schedule: Q01DX009 (ip), vehicle: saline with Tween-80
# [12] = dose: 200.0 mg/kg/injection, schedule: Q01DX009 (ip), vehicle: saline with Tween-80
# [13] = dose: 100.0 mg/kg/injection, schedule: Q04DX002 (ip), vehicle: saline
# [14] = dose: 400.0 mg/kg/injection, schedule: Q01DX009 (ip), vehicle: saline with Tween-80
# [15] = dose: 50.0 mg/kg/injection, schedule: Q01DX009 (ip), vehicle: saline
# [16] = dose: 50.0 mg/kg/injection, schedule: Q01DX005 (ip), vehicle: saline with Tween-80
# [17] = dose: 100.0 mg/kg/injection, schedule: Q01DX005 (ip), vehicle: saline with Tween-80
# [18] = dose: 200.0 mg/kg/injection, schedule: Q01DX005 (ip), vehicle: saline with Tween-80
compound,measurement,setting,value
CNC1CCc2cc(OC)ccc21 (stereo unspecified),T/C,"dose: 50.0 mg/kg/injection, schedule: Q01DX001 (ip), vehicle: Klucel (hydroxypropylcellulose) (HPC)",107 % of control
same,T/C,"dose: 100.0 mg/kg/injection, schedule: Q01DX001 (ip), vehicle: Klucel (hydroxypropylcellulose) (HPC)",102 % of control
CCCCCCC1(/C=C\c2ccc(Cl)c(Cl)c2)OCCO1,T/C,[1],93 % of control
same,T/C,[2],108 % of control
same,T/C,[3],100 % of control
N[C@H]1CN([C@@H](C(=O)O)c2ccc(O)cc2)C1=O,T/C,[4],105 % of control
same,T/C,[5],105 % of control
same,T/C,[6],103 % of control
same,T/C,"dose: 400.0 mg/kg/injection, schedule: Q01DX005 (ip), vehicle: Klucel (hydroxypropylcellulose) (HPC)",99 % of control
C=C(C)C(=O)OC1CC2(C)OC(=CC2=O)C(C)CC2OC(=O)C(=C)C12 (stereo unspecified),T/C,"dose: 25.0 mg/kg/injection, schedule: Q01DX001 (ip), vehicle: saline with Tween-80",118 % of control
same,T/C,[7],116 % of control
O=Cc1ccc(C(Cl)(Cl)Cl)cc1,T/C,[8],123 % of control
same,T/C,"dose: 264.0 mg/kg/injection, schedule: Q04DX003 (ip), vehicle: saline with Tween-80",109 % of control
same,T/C,"dose: 400.0 mg/kg/injection, schedule: Q04DX003 (ip), vehicle: saline with Tween-80",159 % of control
CCCCCCC(Nc1ncnc(Cl)c1N)C(C)O (stereo unspecified),T/C,[9],97 % of control
same,T/C,[10],100 % of control
Cn1c(=O)nc2n(C)c3ccccc3cc-2c1=O,T/C,[8],116 % of control
same,T/C,[11],116 % of control
same,T/C,[12],113 % of control
CCCCCCCCC1OCN2CC(CC)CCC12 (stereo unspecified),T/C,"dose: 50.0 mg/kg/injection, schedule: Q01DX005 (ip), vehicle: saline",107 % of control
same,T/C,"dose: 100.0 mg/kg/injection, schedule: Q01DX005 (ip), vehicle: saline",108 % of control
same,T/C,"dose: 200.0 mg/kg/injection, schedule: Q01DX005 (ip), vehicle: saline",108 % of control
CN(C)CCC(CCc1ccccc1)OC(=O)c1ccc([N+](=O)[O-])cc1 (stereo unspecified),T/C,"dose: 50.0 mg/kg/injection, schedule: Q04DX002 (ip), vehicle: saline",102 % of control
same,T/C,[13],107 % of control
COc1ccc(C2c3cc4c(cc3OC3(N5CCCC5)CCCCC23)OCO4)c(OC)c1 (stereo unspecified),T/C,"dose: 60.0 mg/kg/injection, schedule: Q01DX005 (ip), vehicle: Klucel (hydroxypropylcellulose) (HPC)",87 % of control
same,T/C,"dose: 120.0 mg/kg/injection, schedule: Q01DX005 (ip), vehicle: Klucel (hydroxypropylcellulose) (HPC)",90 % of control
same,T/C,"dose: 240.0 mg/kg/injection, schedule: Q01DX005 (ip), vehicle: Klucel (hydroxypropylcellulose) (HPC)",91 % of control
Nc1nnc(N)n1N,T/C,[8],108 % of control
same,T/C,[11],115 % of control
same,T/C,[12],99 % of control
same,T/C,[14],93 % of control
CCCC/[N+]([O-])=N/O,T/C,"dose: 3.0 mg/kg/injection, schedule: Q01DX005 (ip), vehicle: Klucel (hydroxypropylcellulose) (HPC)",103 % of control
same,T/C,"dose: 6.0 mg/kg/injection, schedule: Q01DX005 (ip), vehicle: Klucel (hydroxypropylcellulose) (HPC)",95 % of control
same,T/C,"dose: 12.0 mg/kg/injection, schedule: Q01DX005 (ip), vehicle: Klucel (hydroxypropylcellulose) (HPC)",100 % of control
same,T/C,"dose: 24.0 mg/kg/injection, schedule: Q01DX005 (ip), vehicle: Klucel (hydroxypropylcellulose) (HPC)",101 % of control
Cc1ccc(C(=O)C2CC(Br)C(Br)CC2C(=O)c2ccc(C)cc2)cc1 (stereo unspecified),T/C,[11],91 % of control
same,T/C,[12],91 % of control
same,T/C,[14],87 % of control
OC(C[n+]1ccccc1)c1ccccc1 (stereo unspecified),T/C,"dose: 6.25 mg/kg/injection, schedule: Q01DX009 (ip), vehicle: saline",105 % of control
same,T/C,"dose: 12.5 mg/kg/injection, schedule: Q01DX009 (ip), vehicle: saline",100 % of control
same,T/C,"dose: 25.0 mg/kg/injection, schedule: Q01DX009 (ip), vehicle: saline",109 % of control
same,T/C,[15],100 % of control
N#C/C(=C\c1ccccc1Cl)C(N)=S,T/C,[15],100 % of control
same,T/C,"dose: 100.0 mg/kg/injection, schedule: Q01DX009 (ip), vehicle: saline",101 % of control
same,T/C,"dose: 200.0 mg/kg/injection, schedule: Q01DX009 (ip), vehicle: saline",97 % of control
Nc1nc(-c2ccc(Cl)c(Cl)c2)cc(-c2cc(-c3ccc(Cl)c(Cl)c3)nc(N)n2)n1,T/C,"dose: 60.0 mg/kg/injection, schedule: Q01DX005 (ip), vehicle: saline with Tween-80",96 % of control
same,T/C,"dose: 120.0 mg/kg/injection, schedule: Q01DX005 (ip), vehicle: saline with Tween-80",95 % of control
same,T/C,"dose: 240.0 mg/kg/injection, schedule: Q01DX005 (ip), vehicle: saline with Tween-80",95 % of control
CC(=O)O.CC(=O)O.CC(=O)O.CC(=O)O.O=C(O)C1C[N-]CC(C(=O)O)C1.O=C(O)C1C[N-]CC(C(=O)O)C1.[Cu+].[Cu+] (stereo unspecified),T/C,"dose: 3.12 mg/kg/injection, schedule: Q01DX005 (ip), vehicle: suspension in saline",95 % of control
same,T/C,"dose: 6.25 mg/kg/injection, schedule: Q01DX005 (ip), vehicle: suspension in saline",99 % of control
same,T/C,"dose: 12.5 mg/kg/injection, schedule: Q01DX005 (ip), vehicle: suspension in saline",94 % of control
[N-]=[N+]=Nc1ccc(NCCCCCC(=O)ON2C(=O)CCC2=O)c([N+](=O)[O-])c1,T/C,[16],106 % of control
same,T/C,[17],106 % of control
same,T/C,[18],106 % of control
Nc1cc(Cl)c2[nH]c(-c3ccccc3)nc2n1,T/C,[7],96 % of control
same,T/C,"dose: 100.0 mg/kg/injection, schedule: Q01DX001 (ip), vehicle: saline with Tween-80",94 % of control
CCc1ccc(-n2c(C)nc3[nH]cc(C)c3c2=N)cc1,T/C,"dose: 12.5 mg/kg/injection, schedule: Q01DX005 (ip), vehicle: Klucel (hydroxypropylcellulose) (HPC)",100 % of control
same,T/C,"dose: 25.0 mg/kg/injection, schedule: Q01DX005 (ip), vehicle: Klucel (hydroxypropylcellulose) (HPC)",100 % of control
same,T/C,[4],98 % of control and 100 % of control
O=C1c2ccccc2S(=O)(=O)N1CCN(CCN1C(=O)c2ccccc2S1(=O)=O)c1ccccc1,T/C,[1],92 % of control
same,T/C,[2],100 % of control
same,T/C,[3],100 % of control
Clc1nc(Cl)nc(-c2cn(-c3ccccc3)c3ccccc23)n1,T/C,[9],100 % of control
same,T/C,[10],90 % of control
same,T/C,[8],100 % of control
NC(=O)CNCc1ccccc1,T/C,[16],94 % of control
same,T/C,[17],99 % of control
same,T/C,[18],94 % of control
COc1cccc2c1C(=O)c1c(O)c3c(c(O)c1C2=O)CC(O)(/C(C)=N/NC(=O)C(=O)N/N=C(\C)C1(O)Cc2c(O)c4c(c(O)c2C(OC2CC(N)C(O)C(C)O2)C1)C(=O)c1c(OC)cccc1C4=O)CC3OC1CC(N)C(O)C(C)O1 (stereo unspecified),T/C,"dose: 1.56 mg/kg/injection, schedule: Q01DX009 (ip), vehicle: water",163 % of control and 166 % of control
same,T/C,"dose: 3.13 mg/kg/injection, schedule: Q01DX009 (ip), vehicle: water",180 % of control and 182 % of control
same,T/C,"dose: 6.25 mg/kg/injection, schedule: Q01DX009 (ip), vehicle: water",184 % of control and 219 % of control
same,T/C,"dose: 12.5 mg/kg/injection, schedule: Q01DX009 (ip), vehicle: water",88 % of control and 94 % of control
CCOC(=O)c1[nH]c2ccc(O)c3c2c1CCC3=O,T/C,[8],92 % of control
same,T/C,[11],88 % of control
same,T/C,[12],94 % of control
Cc1cnc(NCCCCNc2ncc(C)c(-c3ccccc3O)n2)nc1-c1ccccc1O,T/C,[4],101 % of control
same,T/C,[5],101 % of control
same,T/C,[6],89 % of control
CCCC1CC[N-]CC1.CCCC1CC[N-]CC1.CCCC1CC[N-]CC1.CCCC1CC[N-]CC1.CS(C)=O.CS(C)=O.[Cl-].[Cl-].[Cl-].[Cl-].[Cl][Rh][Cl].[Rh+3],T/C,"dose: 3.13 mg/kg/injection, schedule: Q01DX009 (ip), vehicle: saline",117 % of control
same,T/C,[9],123 % of control
COc1ccc(/C=C2\C(=O)C(c3ccccc3)N(c3ccccc3)C2=O)cc1 (stereo unspecified),T/C,"dose: 12.5 mg/kg/injection, schedule: Q04DX002 (ip), vehicle: saline with Tween-80",91 % of control
same,T/C,"dose: 25.0 mg/kg/injection, schedule: Q04DX002 (ip), vehicle: saline with Tween-80",92 % of control
same,T/C,"dose: 50.0 mg/kg/injection, schedule: Q04DX002 (ip), vehicle: saline with Tween-80",98 % of control
CCc1ccccc1C1(Br)C(=O)c2ccccc2C1=O,T/C,[13],102 % of control
same,T/C,"dose: 200.0 mg/kg/injection, schedule: Q04DX002 (ip), vehicle: saline",100 % of control
same,T/C,"dose: 400.0 mg/kg/injection, schedule: Q04DX002 (ip), vehicle: saline",101 % of control
